We go through four compounds from ChEMBL document CHEMBL4834431, “Design of Dimeric Bile Acid Derivatives as Potent and Selective Human NTCP Inhibitors” (J Med Chem, 2021).

Calls of active or inactive are those of the source. The rule behind the calls is not given here. A value given as a limit tells only on which side of the number the result lay.

In data set [1] the test system is Hepatitis B virus. Nature of the data set: Antiviral activity against HBV infected in human HepG2-NTCP cells assessed as reduction in HBeAg secretion incubated for 24 hrs followed replacement with fresh medium and measured at day 5 post infection by ELISA. The format is functional, organism-based. (ELISA stands for enzyme-linked immunosorbent assay.)
In data set [2] the target is T1, Hepatic sodium/bile acid cotransporter (Homo sapiens, UniProt Q14973).
T1 sequence (Q14973 whole entry): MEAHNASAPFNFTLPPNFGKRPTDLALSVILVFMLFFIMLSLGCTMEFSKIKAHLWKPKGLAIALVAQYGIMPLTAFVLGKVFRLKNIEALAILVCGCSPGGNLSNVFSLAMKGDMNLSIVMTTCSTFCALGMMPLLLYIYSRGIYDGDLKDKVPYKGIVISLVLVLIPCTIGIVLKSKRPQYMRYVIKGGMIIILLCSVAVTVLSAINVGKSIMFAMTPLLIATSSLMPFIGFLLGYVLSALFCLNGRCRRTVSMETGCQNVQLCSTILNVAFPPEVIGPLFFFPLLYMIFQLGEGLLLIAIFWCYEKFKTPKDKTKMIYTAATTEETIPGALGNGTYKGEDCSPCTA
Kind of data set: Inhibition of human NTCP-mediated [3H]-TCA uptake expressed in human HepG2 cells in presence of 20 % FBS. The format is cell-based.

Data set [3] addresses T1, Hepatic sodium/bile acid cotransporter. Nature of the data set: Inhibition of human NTCP-mediated [3H]-TCA uptake expressed in human HepG2 cells in presence of 50 % FBS. The format is cell-based.
Data set [4] shares this target. Nature of the data set: Inhibition of human NTCP-mediated [3H]-TCA uptake expressed in human HepG2 cells pretreated for 2 hrs followed by [3H]-TCA addition in absence of FBS. The format is cell-based.
The nature of data set [5]: Stability in mouse liver microsomes assessed as half life at 1 uM preincubated for 5 mins followed by NADPH addition and measured upto 60 mins by LC-MS analysis. The format is ADME, Microsome. As to conditions: time 65 min. For orientation: Liver microsomes are vesicles of endoplasmic reticulum, rich in cytochrome P450 enzymes.
Data set [6] in a line: Stability in mouse liver microsomes assessed as intrinsic clearance at 1 uM preincubated for 5 mins followed by NADPH addition and measured upto 60 mins by LC-MS analysis. The format is ADME, Microsome. To be noted: time 65 min, read-out: CLH.
For data set [7], the system named is Hepatitis B virus. Nature of the data set: Antiviral activity against HBV infected in human HepG2-NTCP cells assessed as reduction in HBeAg secretion at 1 to 10 uM incubated for 24 hrs followed by replacement with fresh medium and measured at day 5 post infection by ELISA. The format is functional, organism-based. To be noted: dose 1-10 µM.
Data set [8] addresses T1, Hepatic sodium/bile acid cotransporter. Nature of the data set: Inhibition of human NTCP-mediated [3H]-TCA uptake expressed in human HepG2 cells at 3.3 uM incubated for 10 mins by liquid scintillation counter analysis. The format is cell-based. As to conditions: hepg2, 10 min.

The term IC50 denotes the point on the concentration scale where inhibition reaches its midpoint. As a reminder, the half-life is the time in which the quantity being followed falls by half.

`C[C@@H]1CCC(=O)NC(C(=O)O)CNC(=O)CC[C@@H](C)[C@H]2CC[C@H]3[C@@H]4[C@@H](O)C[C@@H]5C[C@@H](CC[C@]5(C)[C@H]4CC[C@]23C)n2cc(nn2)CO[C@@H]2CC[C@@]3(C)[C@@H](C2)C[C@H](O)[C@@H]2[C@@H]3CC[C@]3(C)[C@@H]1CC[C@@H]23` (stereo partly specified): the IC50 in the data set on Hepatitis B virus [1] turned out to be 93 nM; in data set [2], 109 nM; in data set [3] it was 167 nM; in data set [4], 17.9 nM.

With `C[C@H](CCC(=O)N[C@@H]1CC[C@@]2(C)[C@@H](C1)C[C@H](O)[C@@H]1[C@@H]2CC[C@]2(C)[C@@H]([C@H](C)CCC(=O)NCCS(=O)(=O)O)CC[C@@H]12)[C@H]1CC[C@H]2[C@@H]3[C@@H](O)C[C@@H]4C[C@H](O)CC[C@]4(C)[C@H]3CC[C@]12C`, the IC50 in the data set with Hepatitis B virus [1] is 5 nM; in data set [4], 0.3 nM. Further, the half-life at 1 µM in data set [5] stood at 0.7 min. Moreover, the microsomal CLint at 1 µM in data set [6] stood at 994 µL/min/mg.

For `C[C@H](CCc1cn([C@@H]2CC[C@@]3(C)[C@@H](C2)C[C@H](O)[C@@H]2[C@@H]3CC[C@]3(C)[C@@H]([C@H](C)CCC(=O)NCCS(=O)(=O)O)CC[C@@H]23)nn1)[C@H]1CC[C@H]2[C@@H]3[C@@H](O)C[C@@H]4C[C@H](O)CC[C@]4(C)[C@H]3CC[C@]12C`, the IC50 in the data set with Hepatitis B virus [1] was 24 nM; in data set [2], above 10000 nM; in data set [3], above 10000 nM; in data set [4], 24.5 nM. For the same compound, in data set [5], the half-life at 1 µM was 12.6 min. Further, the microsomal CLint at 1 µM in data set [6] was 55.2 µL/min/mg.

Consider `CC(=O)O[C@@H]1CC[C@@]2(C)[C@@H](C1)C[C@H](O)[C@@H]1[C@@H]2CC[C@]2(C)[C@@H]([C@H](C)CCC(=O)NCCS(=O)(=O)O)CC[C@@H]12`, for which the result with Hepatitis B virus [7] was inactive. In data set [8], the “inhibition (INH)” value was “Not Active”.
